For 15 compounds, Kd results are on record in patent US20230203098A1, “HUMAN TRANSFERRIN RECEPTOR BINDING PEPTIDE” (priority 2020, published 2023).

Where a SMILES comes first, the peptide text is derived from it. Bridges are numbered along the chain shown (N, C = ends). [ ]: non-standard residue; d: D form. NMePhe(3-Cl) = CN[C@@H](Cc1cccc(Cl)c1)C(=O)O; NMeW = CN[C@@H](Cc1c[nH]c2ccccc12)C(=O)O; NMeY = CN[C@@H](Cc1ccc(O)cc1)C(=O)O; PEG4 = NCCOCCOCCOCCOCCC(=O)O; Nva = CCC[C@H](N)C(=O)O; Abu = CC[C@H](N)C(=O)O Some results are limits rather than exact numbers.

The target in one assay is transferrin receptor (hTfR) (Homo sapiens, UniProt P02786). Nature of the assay: Intermolecular interaction evaluation test between transferrin receptor (hTfR) and peptide by surface plasmon resonance (SPR). It is filed as binding.
Sequence of transferrin receptor (hTfR) (P02786 whole entry): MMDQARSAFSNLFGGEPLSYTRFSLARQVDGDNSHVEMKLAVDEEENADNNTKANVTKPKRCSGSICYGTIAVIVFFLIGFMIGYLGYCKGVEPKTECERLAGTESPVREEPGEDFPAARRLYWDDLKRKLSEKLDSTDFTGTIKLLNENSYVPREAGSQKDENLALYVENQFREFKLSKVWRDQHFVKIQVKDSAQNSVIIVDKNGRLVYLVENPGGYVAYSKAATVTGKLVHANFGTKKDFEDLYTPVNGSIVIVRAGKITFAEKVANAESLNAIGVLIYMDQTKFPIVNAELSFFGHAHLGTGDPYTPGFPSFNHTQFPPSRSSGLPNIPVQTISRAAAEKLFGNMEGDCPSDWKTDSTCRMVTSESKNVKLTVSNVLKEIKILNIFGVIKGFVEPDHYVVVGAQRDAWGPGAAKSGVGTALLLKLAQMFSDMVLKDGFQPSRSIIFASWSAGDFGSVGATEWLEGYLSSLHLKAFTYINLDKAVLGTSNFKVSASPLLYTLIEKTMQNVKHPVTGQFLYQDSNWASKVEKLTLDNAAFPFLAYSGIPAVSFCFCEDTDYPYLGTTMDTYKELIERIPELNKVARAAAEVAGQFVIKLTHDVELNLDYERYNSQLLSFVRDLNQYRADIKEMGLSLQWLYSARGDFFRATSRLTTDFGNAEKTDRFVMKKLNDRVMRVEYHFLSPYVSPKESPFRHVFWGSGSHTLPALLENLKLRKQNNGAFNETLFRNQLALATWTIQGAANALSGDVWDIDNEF
Settings: not given
In short, it runs like this: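 hTfR captured on Ni-NTA chip then amine-coupled; peptides run single-cycle kinetics at 5–100 nM in 10 mM HEPES pH 8.0, 150 mM NaCl, 0.05% Tween 20, 0.1% BSA, 1.0% DMSO. KD from least-squares curve fitting of sensorgrams.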
`CC[C@H](C)[C@@H]1NC(=O)[C@H](Cc2ccc(OC)cc2)NC(=O)[C@H](Cc2ccc(O)cc2)NC(=O)[C@H](CC(N)=O)NC(=O)[C@H](Cc2c[nH]c3ccccc23)N(C)C(=O)[C@H](C(C)C)NC(=O)[C@H](Cc2cccc(Cl)c2)N(C)C(=O)[C@H](CC(=O)O)NC(=O)[C@H](C)NC(=O)CSC[C@@H](C(=O)NCC(=O)NCC(=O)NCC(=O)NCC(=O)N[C@@H](CO)C(=O)N[C@@H](CO)C(=O)N[C@@H](CS)C(N)=O)NC(=O)[C@H](Cc2ccc(O)cc2)N(C)C(=O)[C@H](Cc2ccccc2)NC(=O)[C@@H](CCCNC(=N)N)NC(=O)[C@H](CCCNC(=N)N)NC(=O)[C@H]([C@@H](C)CC)NC1=O` [compound 236] ({CH2CO}-AD[NMePhe(3-Cl)]V[NMeW]NYY(Me)IIR[dR]F[NMeY]CGGGGSSC-NH2; thioether N-15) registered a Kd of 100 to 1000 nM.

The compound `CC[C@H](C)[C@@H]1NC(=O)[C@H](Cc2ccc(OC)cc2)NC(=O)[C@H](Cc2ccc(O)cc2)NC(=O)[C@H](CC(N)=O)NC(=O)[C@H](Cc2c[nH]c3ccccc23)N(C)C(=O)[C@H](C(C)C)NC(=O)[C@H](Cc2cccc(Cl)c2)N(C)C(=O)[C@H](CN)NC(=O)[C@H](C)NC(=O)CSC[C@@H](C(=O)NCC(=O)NCC(=O)NCC(=O)NCC(=O)N[C@@H](CO)C(=O)N[C@@H](CO)C(=O)N[C@@H](CS)C(N)=O)NC(=O)[C@H](Cc2ccc(O)cc2)N(C)C(=O)[C@H](Cc2ccccc2)NC(=O)[C@@H](CCCNC(=N)N)NC(=O)[C@H](CCCNC(=N)N)NC(=O)[C@H]([C@@H](C)CC)NC1=O` [compound 239] yielded a Kd of 1 to 100 nM.

Staying with this assay, now noted: binding to hTfR by SPR; Table 2 peptides; read-out: KD value (SPR) class.
For `CC[C@H](C)[C@@H]1NC(=O)[C@H](Cc2ccc(OC)cc2)NC(=O)[C@H](Cc2ccc(O)cc2)NC(=O)[C@H](CC(N)=O)NC(=O)[C@H](Cc2c[nH]c3ccccc23)N(C)C(=O)[C@H](C(C)C)NC(=O)[C@H](Cc2cccc(Cl)c2)N(C)C(=O)[C@H](CCC(=O)O)NC(=O)[C@H](C)NC(=O)CSC[C@@H](C(=O)N[C@H](CCC(=O)O)C(=O)NCC(=O)NCC(=O)NCC(=O)N[C@@H](CO)C(=O)N[C@@H](CO)C(=O)N[C@@H](CS)C(N)=O)NC(=O)[C@H](Cc2ccc(O)cc2)N(C)C(=O)[C@H](Cc2ccccc2)NC(=O)[C@@H](CCCNC(=N)N)NC(=O)[C@H](CCCNC(=N)N)NC(=O)[C@H]([C@@H](C)CC)NC1=O` [compound 235], the Kd lay in the range of 100 to 1000 nM.

As for `CC[C@H](C)[C@@H]1NC(=O)[C@H](Cc2ccc(O)cc2)NC(=O)[C@H](Cc2ccc(O)cc2)NC(=O)[C@H](CC(N)=O)NC(=O)[C@H](Cc2c[nH]c3ccccc23)NC(=O)[C@H](C(C)C)NC(=O)[C@H](Cc2ccccc2)NC(=O)[C@H](CCCNC(=N)N)NC(=O)[C@H](C)NC(=O)CSC[C@@H](C(N)=O)NC(=O)[C@H](Cc2ccc(O)cc2)N(C)C(=O)[C@H](Cc2ccc(O)cc2)NC(=O)[C@H](CCCNC(=N)N)NC(=O)[C@H](CCCNC(=N)N)NC(=O)[C@H]([C@@H](C)CC)NC1=O` [compound 237], the Kd fell in the range of 1 to 100 nM.

Consider `CC[C@H](C)[C@@H]1NC(=O)[C@H](Cc2ccc(O)cc2)NC(=O)[C@H](Cc2ccc(O)cc2)NC(=O)[C@H](CC(N)=O)NC(=O)[C@H](Cc2c[nH]c3ccccc23)NC(=O)[C@H](C(C)C)NC(=O)[C@H](Cc2ccccc2)NC(=O)[C@H](CCCCN)NC(=O)[C@H](C)NC(=O)CSC[C@@H](C(N)=O)NC(=O)[C@H](Cc2ccc(O)cc2)N(C)C(=O)[C@H](Cc2ccc(O)cc2)NC(=O)[C@H](CCCNC(=N)N)NC(=O)[C@H](CCCNC(=N)N)NC(=O)[C@H]([C@@H](C)CC)NC1=O` [compound 238], for which the dissociation constant Kd was 1 to 100 nM.

For the compound `CC[C@H](C)[C@@H]1NC(=O)[C@H](Cc2ccc(OC)cc2)NC(=O)[C@H](Cc2ccc(O)cc2)NC(=O)[C@H](CC(N)=O)NC(=O)[C@H](Cc2c[nH]c3ccccc23)N(C)C(=O)[C@H](C(C)C)NC(=O)[C@H](Cc2cccc(Cl)c2)N(C)C(=O)[C@H](CCC(=O)N[C@H](CCC(=O)O)C(=O)O)NC(=O)[C@H](C)NC(=O)CSC[C@@H](C(N)=O)NC(=O)[C@H](Cc2ccc(O)cc2)N(C)C(=O)[C@H](Cc2ccccc2)NC(=O)[C@@H](CCCNC(=N)N)NC(=O)[C@H](CCCNC(=N)N)NC(=O)[C@H]([C@@H](C)CC)NC1=O` [compound 241], the dissociation constant (Kd) is 1 to 100 nM.

For `CC[C@H](C)[C@@H]1NC(=O)[C@H](Cc2ccc(OC)cc2)NC(=O)[C@H](Cc2ccc(O)cc2)NC(=O)[C@H](CC(N)=O)NC(=O)[C@H](Cc2c[nH]c3ccccc23)N(C)C(=O)[C@H](C(C)C)NC(=O)[C@H](Cc2cccc(Cl)c2)N(C)C(=O)[C@H](CCCCNC(=N)N)NC(=O)[C@H](C)NC(=O)CSC[C@@H](C(N)=O)NC(=O)[C@H](Cc2ccc(O)cc2)N(C)C(=O)[C@H](Cc2ccccc2)NC(=O)[C@@H](CCCNC(=N)N)NC(=O)[C@H](CCCNC(=N)N)NC(=O)[C@H]([C@@H](C)CC)NC1=O` [compound 242], the Kd was in the range of 1 to 100 nM.

Consider `CC[C@@H]1NC(=O)[C@H](C)NC(=O)CSC[C@@H](C(=O)NCCOCCOCCOCCOCCC(N)=O)NC(=O)[C@H](Cc2ccc(O)cc2)N(C)C(=O)[C@H](Cc2ccccc2)NC(=O)[C@@H](CCCNC(=N)N)NC(=O)[C@H](CCCNC(=N)N)NC(=O)[C@H]([C@@H](C)CC)NC(=O)[C@H]([C@@H](C)CC)NC(=O)[C@H](Cc2ccc(OC)cc2)NC(=O)[C@H](Cc2ccc(O)cc2)NC(=O)[C@H](CC(N)=O)NC(=O)[C@H](Cc2c[nH]c3ccccc23)N(C)C(=O)[C@H](C(C)C)NC(=O)[C@H](Cc2cccc(Cl)c2)N(C)C1=O` [compound 243] ({CH2CO}-A[Abu][NMePhe(3-Cl)]V[NMeW]NYY(Me)IIR[dR]F[NMeY]C[PEG4]-NH2; thioether N-15), for which the dissociation constant (Kd) fell in the range of 1 to 100 nM.

As to `CCC[C@@H]1NC(=O)[C@H](C)NC(=O)CSC[C@@H](C(=O)NCCOCCOCCOCCOCCC(N)=O)NC(=O)[C@H](Cc2ccc(O)cc2)N(C)C(=O)[C@H](Cc2ccccc2)NC(=O)[C@@H](CCCNC(=N)N)NC(=O)[C@H](CCCNC(=N)N)NC(=O)[C@H]([C@@H](C)CC)NC(=O)[C@H]([C@@H](C)CC)NC(=O)[C@H](Cc2ccc(OC)cc2)NC(=O)[C@H](Cc2ccc(O)cc2)NC(=O)[C@H](CC(N)=O)NC(=O)[C@H](Cc2c[nH]c3ccccc23)N(C)C(=O)[C@H](C(C)C)NC(=O)[C@H](Cc2cccc(Cl)c2)N(C)C1=O` [compound 244] ({CH2CO}-A[Nva][NMePhe(3-Cl)]V[NMeW]NYY(Me)IIR[dR]F[NMeY]C[PEG4]-NH2; thioether N-15), the Kd fell in the range of 1 to 100 nM.

As for `CC[C@H](C)[C@@H]1NC(=O)[C@H](Cc2ccc(O)cc2)NC(=O)[C@H](Cc2ccc(O)cc2)NC(=O)[C@H](CC(N)=O)NC(=O)[C@H](Cc2c[nH]c3ccccc23)NC(=O)[C@H](C(C)C)NC(=O)[C@H](Cc2ccccc2)NC(=O)[C@H](C(C)C)NC(=O)[C@H](C)NC(=O)CSC[C@@H](C(N)=O)NC(=O)[C@H](Cc2ccc(O)cc2)N(C)C(=O)[C@H](Cc2ccc(O)cc2)NC(=O)[C@H](CCCNC(=N)N)NC(=O)[C@H](CCCNC(=N)N)NC(=O)[C@H](CCC(=O)O)NC1=O` [compound 247], the dissociation constant Kd is 1 to 100 nM.

Take `CC[C@H](C)[C@@H]1NC(=O)[C@H](Cc2ccc(O)cc2)NC(=O)[C@H](Cc2ccc(O)cc2)NC(=O)[C@H](CC(N)=O)NC(=O)[C@H](Cc2c[nH]c3ccccc23)NC(=O)[C@H](C(C)C)NC(=O)[C@H](Cc2ccccc2)NC(=O)[C@H](C(C)C)NC(=O)[C@H](C)NC(=O)CSC[C@@H](C(N)=O)NC(=O)[C@H](Cc2ccc(O)cc2)N(C)C(=O)[C@H](Cc2ccc(O)cc2)NC(=O)[C@H](CCCNC(=N)N)NC(=O)[C@H](CCCNC(=N)N)NC(=O)[C@H](CCCNC(=N)N)NC1=O` [compound 248]: the Kd was in the range of 1 to 100 nM.

As for `CC[C@H](C)[C@@H]1NC(=O)[C@H](Cc2ccc(O)cc2)NC(=O)[C@H](Cc2ccc(O)cc2)NC(=O)[C@H](CC(N)=O)NC(=O)[C@H](Cc2c[nH]c3ccccc23)NC(=O)[C@H](C(C)C)NC(=O)[C@H](Cc2ccccc2)NC(=O)[C@H](C(C)C)NC(=O)[C@H](C)NC(=O)CSC[C@@H](C(N)=O)NC(=O)[C@H](Cc2ccc(O)cc2)N(C)C(=O)[C@H](Cc2ccc(O)cc2)NC(=O)[C@H](CCCNC(=N)N)NC(=O)[C@H](CCCNC(=N)N)NC(=O)[C@H](CCCCN)NC1=O` [compound 249] ({CH2CO}-AVFVWNYYIKRRY[NMeY]C-NH2; thioether N-15), the Kd is less than 1 nM.

On to `CC[C@H](C)[C@@H]1NC(=O)[C@H](Cc2ccc(O)cc2)NC(=O)[C@H](Cc2ccc(O)cc2)NC(=O)[C@H](CC(N)=O)NC(=O)[C@H](Cc2c[nH]c3ccccc23)NC(=O)[C@H](C(C)C)NC(=O)[C@H](Cc2ccccc2)NC(=O)[C@H](C(C)C)NC(=O)[C@H](C)NC(=O)CSC[C@@H](C(N)=O)NC(=O)[C@H](Cc2ccc(O)cc2)N(C)C(=O)[C@H](Cc2ccc(O)cc2)NC(=O)[C@H](CCCNC(=N)N)NC(=O)[C@H](CCC(=O)O)NC(=O)[C@H]([C@@H](C)CC)NC1=O` [compound 251], for which the Kd fell in the range of 1 to 100 nM.

Turning to `CC[C@H](C)[C@@H]1NC(=O)[C@H](Cc2ccc(O)cc2)NC(=O)[C@H](Cc2ccc(O)cc2)NC(=O)[C@H](CC(N)=O)NC(=O)[C@H](Cc2c[nH]c3ccccc23)NC(=O)[C@H](C(C)C)NC(=O)[C@H](Cc2ccccc2)NC(=O)[C@H](C(C)C)NC(=O)[C@H](C)NC(=O)CSC[C@@H](C(N)=O)NC(=O)[C@H](Cc2ccc(O)cc2)N(C)C(=O)[C@H](Cc2ccc(O)cc2)NC(=O)[C@H](C)NC(=O)[C@H](CCC(=O)O)NC(=O)[C@H]([C@@H](C)CC)NC1=O` [compound 252], the Kd was in the range of 100 to 1000 nM.

On to `CC[C@H](C)[C@@H]1NC(=O)[C@H](Cc2ccc(O)cc2)NC(=O)[C@H](Cc2ccc(O)cc2)NC(=O)[C@H](CC(N)=O)NC(=O)[C@H](Cc2c[nH]c3ccccc23)NC(=O)[C@H](C(C)C)NC(=O)[C@H](Cc2ccccc2)NC(=O)[C@H](C(C)C)NC(=O)[C@H](C)NC(=O)CSC[C@@H](C(N)=O)NC(=O)[C@H](Cc2ccc(O)cc2)N(C)C(=O)[C@H](Cc2ccc(O)cc2)NC(=O)[C@H](CCCNC(=N)N)NC(=O)[C@H](C)NC(=O)[C@H]([C@@H](C)CC)NC1=O` [compound 253], for which the Kd was 1 to 100 nM.

By Kd is commonly meant a measure of binding affinity in units of concentration.
